Data on 16 compounds can be found in patent US20220002279A1, “NOVEL IMIDAZOLE DERIVATIVE” (priority 2018, published 2022).

Values after ≈ are worked out from the molar mass of the structure shown. Like-named read-outs stand apart in the source and are kept apart here. Some results are limits rather than exact numbers.

Assay [1] concerns Escherichia coli strain ATCC25922. Briefly: Antimicrobial activity, MIC by broth microdilution. The note with it: ATCC25922, 18 h, cation-adjusted Mueller-Hinton broth, about 5×10^5 CFU/mL, 35° C., about 18 hours, read-out: MIC Escherichia coli ATCC25922. It is filed as cell-based. Summed up: (§1)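 MIC read by eye as the lowest drug level lacking visible growth after roughly 18 h at 35° C. Cells from heart infusion agar, set to McFarland 0.5 and diluted, were inoculated at about 5×10^5 CFU/mL into cation-adjusted Mueller-Hinton broth with compound, per adapted CLSI microdilution.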

The subject of assay [2] is Klebsiella pneumoniae strain ATCC13883. Briefly: Antimicrobial activity, MIC by broth microdilution. The note with it: ATCC13883, cation-adjusted Mueller-Hinton broth, about 5×10^5 CFU/mL, 35° C., about 18 hours, read-out: MIC Klebsiella pneumoniae ATCC13883. It is filed as cell-based. The essentials:
as §1

Assay [3] relates to Pseudomonas aeruginosa strain ATCC27853. Briefly: Antimicrobial activity, MIC by broth microdilution. The note with it: ATCC27853, 18 h, cation-adjusted Mueller-Hinton broth, about 5×10^5 CFU/mL, 35° C., about 18 hours, read-out: MIC Pseudomonas aeruginosa ATCC27853. Type of assay: cell-based. The essentials:
as §1

The target in assay [4] is T1, Escherichia coli LpxC enzyme (Escherichia coli, UniProt P0A725).
T1 construct: made in house; host or cells: Escherichia coli
T1 sequence (P0A725 1-305): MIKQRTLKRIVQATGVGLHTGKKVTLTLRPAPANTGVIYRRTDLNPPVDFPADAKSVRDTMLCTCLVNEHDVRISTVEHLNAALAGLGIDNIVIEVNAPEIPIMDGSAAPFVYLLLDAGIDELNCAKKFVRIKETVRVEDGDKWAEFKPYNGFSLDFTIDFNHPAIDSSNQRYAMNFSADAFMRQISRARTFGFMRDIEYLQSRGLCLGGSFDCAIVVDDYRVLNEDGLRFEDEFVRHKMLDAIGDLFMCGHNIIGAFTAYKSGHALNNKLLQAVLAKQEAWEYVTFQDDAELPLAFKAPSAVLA
Nature of the assay: Inhibitory activity on Escherichia coli LpxC enzyme (fluorescamine method). Type of assay: biochemical. The essentials: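 LpxC reacted with UDP-3-O-(R-3-hydroxymyristoyl)-N-acetylglucosamine; product amine quantified after fluorescamine stop and pH 8.0 phosphate buffer addition, at 390 nm/495 nm. Inhibition curve built from a range of test compound concentrations.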

[5] abbreviates: fluorescamine detection, 3.1 nmol/L enzyme, 20 μmol/L substrate, pH 6.5, 120 min, read-out: IC50 (inhibitory activity on Escherichia coli LpxC enzyme, Fluoresamine method).

For the compound `C[C@H](O)c1nccn1Cc1cc(-c2ccc(C#CC3CC3)cc2)on1` [Compound 26, (1S)-1-[1-({5-[4-(Cyclopropylethynyl)phenyl]-1,2-oxazol-3-yl}methyl)-1H-imidazol-2-yl]ethan-1-ol], the MIC in assay [1] was 0.25 µg/mL (≈ 0.75 µM); in assay [2], 0.25 µg/mL (≈ 0.75 µM); in assay [3] it was over 8 µg/mL. In assay [4], the IC50 is under 10 nM.

Take `C[C@H](O)c1nccn1Cc1cc(-c2ccc(C#CC(C)(C)C)cc2)on1` [Compound 43, (1S)-1-[1-({5-[4-(3,3-dimethylbut-1-yn-1-yl)phenyl]-1,2-oxazol-3-yl}methyl)-1H-imidazol-2-yl]ethan-1-ol]: the values for the MIC in assay [1], in assay [2] and in assay [3] were 1 µg/mL (≈ 2.86 µM), 2 µg/mL (≈ 5.72 µM) and over 32 µg/mL, respectively. The IC50 in assay [4] (setting [5]) was 47.1 nM.

On to `COCCN1C[C@@H]2[C@@H](C#Cc3ccc(-c4cc(Cn5ccnc5[C@H](C)O)no4)cc3)[C@@H]2C1` [Compound 34, (1S)-1-(1-{[5-(4-{[(1R,5S,6s)-3-(2-methoxyethyl)-3-azabicyclo[3.1.0]hexan-6-yl]ethynyl}phenyl)-1,2-oxazol-3-yl]methyl}-1H-imidazol-2-yl)ethan-1-ol], for which the values for the MIC in assay [1], in assay [2] and in assay [3] were 0.25 µg/mL (≈ 0.578 µM), 0.5 µg/mL (≈ 1.16 µM) and 8 µg/mL (≈ 18.5 µM), respectively. Also, the IC50 in assay [4] (setting [5]) is 108 nM.

In the case of `CNC(=O)N1C[C@@H]2[C@@H](C#Cc3ccc(-c4cc(Cn5ccnc5[C@H](C)O)no4)cc3)[C@@H]2C1` [Compound 92, (1R,5S,6s)-6-({4-[3-({2-[(1S)-1-Hydroxyethyl]-1H-imidazol-1-yl}methyl)-1,2-oxazol-5-yl]phenyl}ethynyl)-N-methyl-3-azabicyclo[3.1.0]hexan-3-carboxamide], the MIC in assay [1] was 0.5 µg/mL (≈ 1.16 µM); in assay [2] it was 1 µg/mL (≈ 2.32 µM); in assay [3] it was 16 µg/mL (≈ 37.1 µM). The IC50 in assay [4] (setting [5]) was 54.9 nM.

For `CC(O)CN1C[C@@H]2[C@@H](C#Cc3ccc(-c4cc(Cn5ccnc5[C@H](C)O)on4)cc3)[C@@H]2C1` (stereo partly drawn) [Compound 121, 1-[(1R,5S,6s)-6-({4-[5-((2-[(1S)-1-hydroxyethyl]-1H-imidazol-1-yl}methyl)-1,2-oxazol-3-yl]phenyl}ethynyl)-3-azabicyclo[3.1.0]hexan-3-yl]propan-2-ol], the MIC in assay [1] turned out to be 0.5 µg/mL (≈ 1.16 µM); in assay [2], 1 µg/mL (≈ 2.31 µM); in assay [3], 16 µg/mL (≈ 37 µM). The IC50 in assay [4] (setting [5]) was 98.5 nM.

As to `C[C@H](O)c1nccn1Cc1cc(-c2ccc(C#C[C@@H]3[C@H]4CN(C(=O)C(=O)N(C)C)C[C@@H]34)cc2)on1` [Compound 108, 2-[(1R,5S,6s)-6-((4-[3-((2-[(1S)-1-hydroxyethyl]-1H-imidazol-1-yl}methyl)-1,2-oxazol-5-yl]phenyl}ethynyl)-3-azabicyclo[3.1.0]hexan-3-yl]-N,N-dimethyl-2-oxoacetamide], the MIC in assay [1] was 4 µg/mL (≈ 8.45 µM); in assay [2], 4 µg/mL (≈ 8.45 µM); in assay [3], 16 µg/mL (≈ 33.8 µM). Moreover, the IC50 in assay [4] (setting [5]) was 122 nM.

On to `C[C@H](O)C(=O)N1C[C@@H]2[C@@H](C#Cc3ccc(-c4cc(Cn5ccnc5[C@H](C)O)no4)cc3)[C@@H]2C1` [Compound 77, (2S)-2-hydroxy-1-[(1R,5S,6R)-6-({4-[3-({2-[(1S)-1-hydroxyethyl]-1H-imidazol-1-yl}methyl)-1,2-oxazol-5-yl]phenyl}ethynyl)-3-azabicyclo[3.1.0]hexan-3-yl]propan-1-one], for which the MIC in assay [1] was determined as 2 µg/mL (≈ 4.48 µM); in assay [2] it was 2 µg/mL (≈ 4.48 µM); in assay [3], 32 µg/mL (≈ 71.7 µM). Further, in assay [4] (setting [5]), the IC50 worked out at 67.4 nM.

As for `C[C@H](O)c1nccn1Cc1cc(-c2ccc(C#CCO)cc2)on1` [Compound 48, 3-{4-[3-((2-[(1S)-1-hydroxyethyl]-1H-imidazol-1-yl}methyl)-1,2-oxazol-5-yl]phenyl}prop-2-yn-1-ol], the MIC was 16 µg/mL (≈ 49.5 µM) in assay [1], 32 µg/mL (≈ 99 µM) in assay [2] and over 32 µg/mL in assay [3]. In assay [4] (setting [5]), the IC50 stood at 362 nM.

For `CNC1(C#Cc2ccc(-c3cc(Cn4ccnc4[C@H](C)O)no3)cc2)CC1` [Compound 45, (1S)-1-(1-{[5-(4-{[1-(Methylamino)cyclopropyl]ethynyl}phenyl)-1,2-oxazol-3-yl]methyl}-1H-imidazol-2-yl)ethan-1-ol], the minimum inhibitory concentration (MIC) in assay [1] was found to be 0.25 µg/mL (≈ 0.69 µM); in assay [2], 0.5 µg/mL (≈ 1.38 µM); in assay [3], 128 µg/mL (≈ 353 µM). In addition, inhibition in assay [4] was half-maximal at 268 nM (IC50).

With `C[C@H](O)c1nccn1Cc1cc(-c2ccc(C#C[C@H]3C[C@H](NC=O)C3)cc2)on1` [Compound 103, N-[trans-3-({4-[3-({2-[(1S)-1-Hydroxyethyl]-1H-imidazol-1-yl}methyl)-1,2-oxazol-5-yl]phenyl}ethynyl)cyclobutyl]formamide], the minimal inhibitory concentration (MIC) in assay [1] is 1 µg/mL (≈ 2.56 µM); in assay [2] it was 2 µg/mL (≈ 5.12 µM); in assay [3], over 128 µg/mL. This compound also came in with an IC50 in assay [4] of 88 nM.

As to `C[C@H](O)c1nccn1Cc1cc(-c2ccc(C#CC3(C)COC3)cc2)on1` [Compound 47, (1S)-1-{1-[(5-{4-[(3-methyloxetan-3-yl)ethynyl]phenyl}-1,2-oxazol-3-yl)methyl]-1H-imidazol-2-yl} ethan-1-ol], the MIC in assay [1] was 0.5 µg/mL (≈ 1.38 µM); in assay [2], 1 µg/mL (≈ 2.75 µM); in assay [3], over 128 µg/mL. The IC50 in assay [4] (setting [5]) came to 19.3 nM.

In the case of `C[C@H](O)c1nccn1[C@H](CN)c1cc(-c2ccc(C#CC3(C)COC3)cc2)on1` [Compound 116, (1S)-1-{1-[(1R)-2-amino-1-(5-{4-[(3-methyloxetan-3-yl)ethynyl]phenyl}-1,2-oxazol-3-yl)ethyl]-1H-imidazol-2-yl}ethan-1-ol], the MIC in assay [1] stood at 0.5 µg/mL (≈ 1.27 µM); in assay [2], 2 µg/mL (≈ 5.1 µM); in assay [3], 64 µg/mL (≈ 163 µM). Also, the IC50 in assay [4] (setting [5]) was 79.1 nM.

Take `COCCC#Cc1ccc(-c2cc(Cn3ccnc3[C@H](C)O)no2)cc1` [Compound 65, (1S)-1-[l-({5-[4-(4-methoxybut-1-yn-1-yl)phenyl]-1,2-oxazol-3-yl)methyl)-1H-imidazol-2-yl]ethan-1-ol]: the MIC in assay [1] was 0.5 µg/mL (≈ 1.42 µM); in assay [2] it was 1 µg/mL (≈ 2.85 µM); in assay [3], over 128 µg/mL. In addition, the IC50 in assay [4] (setting [5]) stood at 39.1 nM.

Regarding `CC(=O)N1C[C@@H]2[C@@H](C#Cc3ccc(-c4cc(Cn5ccnc5[C@H](C)O)on4)cc3)[C@@H]2C1` [Compound 86, 1-[(1R,5S,6s)-6-({4-[5-((2-[(1S)-1-hydroxyethyl]-1H-imidazol-1-yl}methyl)-1,2-oxazol-3-yl]phenyl}ethynyl)-3-azabicyclo[3.1.0]hexan-3-yl]ethan-1-one], the MIC in assay [1] was 1 µg/mL (≈ 2.4 µM); in assay [2], 1 µg/mL (≈ 2.4 µM); in assay [3] it was 32 µg/mL (≈ 76.8 µM). Also, the half-maximal inhibitory concentration (IC50) in assay [4] (setting [5]) was 46.4 nM.

Turning to `COCC#Cc1ccc(-c2cc(Cn3ccnc3[C@H](C)O)no2)cc1` [Compound 53, (1S)-1-[l-((5-[4-(3-methoxyprop-1-yn-1-yl)phenyl]-1,2-oxazol-3-yl}methyl)-1H-imidazol-2-yl]ethan-1-ol], the MIC in assay [1] was 4 µg/mL (≈ 11.9 µM); in assay [2], 2 µg/mL (≈ 5.93 µM); in assay [3], over 128 µg/mL. Moreover, the IC50 in assay [4] (setting [5]) stood at 81.7 nM.

Take `C[C@H](O)c1nccn1Cc1cc(-c2ccc(C#CC3CCN(C=O)CC3)cc2)on1` [Compound 127, 4-({4-[3-({2-[(1S)-1-hydroxyethyl]-1H-imidazol-1-yl}methyl)-1,2-oxazol-5-yl]phenyl}ethynyl)piperidine-1-carbaldehyde]: the results for the MIC in assay [1], in assay [2] and in assay [3] were 2 µg/mL (≈ 4.94 µM), 2 µg/mL (≈ 4.94 µM) and over 64 µg/mL, respectively. For the same compound, the IC50 in assay [4] (setting [5]) is 60.1 nM.
